Measurements as given in patent US8946268B2, “Modulators of HEC1 activity and methods therefor” (Taivex Therapeutics, Inc., priority 2010, dated 2015).

Tests used:
Assay type in all cases: cell-based
[1] = system: MDA-MB-468; assay: Antiproliferative activity (MTS assay), MDA-MB-468; settings: MDA-MB-468 cells
Method: (§1) Antiproliferative effect is expressed as IC50 values in microMolar final concentration.
(§2) Cells were grown at 37° C. in a humidified atmosphere with 5% CO2 and 95% air. Cells were seeded in 96 well tissue culture plates.
(§3) Compound treatment started after overnight incubation of cells (TO). […] Compound was added to the plate in triplicate wells, and the plates were then incubated for 96 hours. DMSO (compounds diluents) was also included and added to the plate in control wells. Cell viability was then determined by MTS assay using CellTiter 96® AQueous non-radioactive cell proliferation assay system (Promega). A plate reader (Molecular Devices, Vmax) was used to read the optical densities, and the results were used to deduce concentration-response curves. […] The results were analyzed using linear regression software (GraphPad Prism 5; GraphPad Software Inc.).
(§4) The GI50 values (growth inhibitory activity) were determined to emphasize on the correction for the cell count at time zero; thus, the % inhibition of test drug were: [1−(T−T0)/(C−T0)]×100; and these value were used to plot the concentration-response curves, and then analyzed with linear regression software (GraphPad Prism 5).

[2] = system: Hela; assay: Antiproliferative activity (MTS assay), Hela; settings: Hela cells
Method: as §1, §2, §3, §4

[3] = system: K562; assay: Antiproliferative activity (MTS assay), K562; settings: K562 cells
Method: as §1, §2, §3, §4

[4] = system: MDA-MB-231; assay: Antiproliferative activity (MTS assay), MDA-MB-231; settings: MDA-MB-231 cells
Method: as §1, §2, §3, §4

Row | Compound | IC50 ([1]; Homo sapiens, MDA-MB-468, 96 h) [µM] | IC50 ([2]; Homo sapiens, HeLa, 96 h) [nM] | IC50 ([3]; Homo sapiens, K562, 96 h) [nM] | IC50 ([4]; Homo sapiens, MDA-MB-231, 96 h) [nM] | IC50 ([1]; 96 hours) [µM] | IC50 ([2]; 96 hours) [nM] | IC50 ([3]; 96 hours) [nM] | IC50 ([4]; 96 hours) [nM]
1 | O=C(Nc1nc(-c2ccc(O)cc2)cs1)c1ccncc1 [Compound 57] | > 10 | > 10000 | > 10000 | > 10000 | – | – | – | –
2 | O=C(Nc1nc(-c2ccc(O)cc2)cs1)c1ccncn1 [Compound 58] | > 10 | > 10000 | > 10000 | > 10000 | – | – | – | –
3 | O=C(Nc1nc(-c2ccc(O)cc2)cs1)c1ccccn1 [Compound 59] | > 10 | > 10000 | > 10000 | > 10000 | – | – | – | –
4 | O=C(Nc1nc(-c2ccc(O)cc2)cs1)c1cccnc1 [Compound 60] | > 10 | > 10000 | > 10000 | > 10000 | – | – | – | –
5 | Cc1cc(O)ccc1-c1csc(NC(=O)c2ccc(C#N)cc2)n1 [Compound 61] | > 10 | > 10000 | > 10000 | > 10000 | – | – | – | –
6 | COc1c(F)cc(-c2csc(NC(=O)c3ccncc3)n2)cc1F [Compound 62] | 5.45 | > 10000 | 7160 | 4000 | – | – | – | –
7 | COc1ccc(-c2csc(NC(=O)c3ccnc(Cl)c3)n2)cc1F [Compound 63] | > 10 | > 10000 | > 10000 | > 10000 | – | – | – | –
8 | CC(=O)Nc1cc(C)c(-c2csc(NC(=O)Nc3ccncc3)n2)c(C)c1 [Compound 68] | 3.61 | 5130 | 4960 | 4240 | – | – | – | –
9 | COc1cc(C)c(-c2csc(NC(=O)c3cc[n+]([O-])cc3)n2)c(C)c1 [Compound 72] | 4.81 | 2700 | 5400 | 4280 | – | – | – | –
10 | CC(C)c1cc(C(C)C)c(-c2csc(NC(=O)c3ccncc3)n2)c(C(C)C)c1 [Compound 73] | > 10 | > 10000 | > 10000 | > 10000 | – | – | – | –
11 | COc1cc(C)c(-c2csc(NC(=O)c3cncs3)n2)c(C)c1 [Compound 75] | 4.34 | 2930 | 3700 | 2370 | – | – | – | –
12 | Cc1cc(C)c(-c2csc(NC(=O)c3ccnc(Cl)c3)n2)c(C)c1 [Compound 81] | – | – | – | – | 0.82 | 860 | 790 | 720
13 | Cc1cc(C)c(-c2csc(NC(=O)c3ccnc(N4CCOCC4)c3)n2)c(C)c1 [Compound 83] | 4.17 | 2370 | 2230 | 3510 | – | – | – | –
14 | Cc1cc(C)c(-c2csc(NC(=O)c3ccnc(N4CCN(C)CC4)c3)n2)c(C)c1 [Compound 84] | 28.8 | > 10000 | > 10000 | > 10000 | – | – | – | –
15 | COc1cc(C(=O)Nc2nc(-c3c(C)cc(C)cc3C)cs2)cc(Cl)n1 [Compound 87] | > 10 | > 10000 | > 10000 | > 10000 | – | – | – | –
16 | Cc1cc(C)c(-c2csc(NC(=O)c3cc(Cl)nc(Cl)c3)n2)c(C)c1 [Compound 88] | 15.5 | > 10000 | 8300 | 7980 | – | – | – | –
17 | CC(=O)Nc1cc(C(=O)Nc2nc(-c3c(C)cc(C)cc3C)cs2)ccn1 [Compound 89] | 8.2 | > 10000 | > 10000 | > 10000 | – | – | – | –
18 | Cc1cc(C)c(-c2csc(NC(=O)c3ccnc(N4CCCCC4)c3)n2)c(C)c1 [Compound 91] | 4.66 | > 10000 | 1400 | 6060 | – | – | – | –
19 | Cc1cc(C)c(-c2csc(NC(=O)c3ccc4cn[nH]c4c3)n2)c(C)c1 [Compound 104] | 7.64 | > 10000 | 2440 | 1100 | – | – | – | –
20 | Cc1cc(C)c(-c2csc(NC(=O)c3ccc4[nH]ncc4c3)n2)c(C)c1 [Compound 105] | 8.02 | > 10000 | > 10000 | > 10000 | – | – | – | –
21 | Cc1cc(C)c(-c2csc(NC(=O)c3ccc4[nH]nnc4c3)n2)c(C)c1 [Compound 106] | > 10 | > 10000 | > 10000 | 4950 | – | – | – | –

Results, then the compound that gave them:

Row | IC50 ([1]; Homo sapiens, MDA-MB-468, 96 h) [µM] | IC50 ([2]; Homo sapiens, HeLa, 96 h) [nM] | IC50 ([3]; Homo sapiens, K562, 96 h) [nM] | IC50 ([4]; Homo sapiens, MDA-MB-231, 96 h) [nM] | IC50 ([1]; 96 hours) [µM] | IC50 ([2]; 96 hours) [nM] | IC50 ([3]; 96 hours) [nM] | IC50 ([4]; 96 hours) [nM] | Compound
22 | 0.98 | 840 | 930 | 620 | – | – | – | – | Cc1cc(C)c(-c2csc(NC(=O)c3ccnc(Cl)c3)n2)c(C)c1 [Compound 64]
23 | 0.24 | 200 | 210 | 110 | – | – | – | – | CCOc1cc(C)c(-c2csc(NC(=O)c3ccnc(Cl)c3)n2)c(C)c1 [Compound 66]
24 | 0.78 | > 10000 | 820 | 570 | – | – | – | – | COc1cc(C)c(-c2csc(NC(=O)Nc3ccncc3)n2)c(C)c1 [Compound 67]
25 | 0.21 | 30 | 160 | 110 | – | – | – | – | CCOc1cc(C)c(-c2csc(NC(=O)c3ccnc(F)c3)n2)c(C)c1 [Compound 70]
26 | 1.27 | 1590 | 2130 | 1460 | – | – | – | – | CC(=O)Nc1cc(C)c(-c2csc(NC(=O)c3ccncc3)n2)c(C)c1 [Compound 74]
27 | 1.25 | 1120 | 940 | 540 | – | – | – | – | O=C(Nc1nc(-c2c(F)cc(F)cc2F)cs1)c1ccncc1 [Compound 76]
28 | 2.78 | 2290 | 2820 | 1220 | – | – | – | – | Cc1cc(C)c(-c2csc(NC(=O)c3ccncc3F)n2)c(C)c1 [Compound 77]
29 | 2.51 | 1720 | 690 | 770 | – | – | – | – | COc1cc(C(=O)Nc2nc(-c3c(C)cc(C)cc3C)cs2)ccn1 [Compound 86]
30 | 1.22 | 1150 | 990 | 800 | – | – | – | – | Cc1cc(C)c(-c2csc(NC(=O)c3cc(F)nc(F)c3)n2)c(C)c1 [Compound 90]
31 | 3.29 | > 10000 | 450 | 2210 | – | – | – | – | Cc1cc(C)c(-c2csc(NC(=O)c3ccnc(N(C)C)c3)n2)c(C)c1 [Compound 92]
32 | 0.3 | 620 | 380 | 310 | – | – | – | – | Cc1cc(C)c(-c2csc(NC(=O)Cc3ccncc3)n2)c(C)c1 [Compound 93]
33 | 0.39 | 230 | 230 | 300 | – | – | – | – | Cc1cc(OCC(C)O)cc(C)c1-c1csc(NC(=O)c2ccncc2)n1 (stereo not drawn) [Compound 94]
34 | 3.11 | 3260 | 9110 | 8300 | – | – | – | – | Cc1cc(OCC(O)CO)cc(C)c1-c1csc(NC(=O)c2ccncc2)n1 (stereo not drawn) [Compound 97]
35 | 0.04 | 40 | 20 | 20 | – | – | – | – | COc1ccc(Oc2cc(C)c(-c3csc(NC(=O)c4ccnc(F)c4)n3)c(C)c2)cc1 [Compound 98]
36 | 0.13 | 110 | 50 | 70 | – | – | – | – | Cc1cc(Oc2ccc3c(c2)OCO3)cc(C)c1-c1csc(NC(=O)c2ccncc2)n1 [Compound 101]
37 | 2.17 | > 10000 | 2480 | 1110 | – | – | – | – | Cc1cc(C)c(-c2csc(NC(=O)/C=C/c3cccnc3)n2)c(C)c1 [Compound 103]
38 | 0.28 | 310 | 240 | 260 | – | – | – | – | COCCOc1cc(C)c(-c2csc(NC(=O)c3ccncc3)n2)c(C)c1 [Compound 109]
39 | 0.13 | 110 | 100 | 90 | – | – | – | – | COCCCOc1cc(C)c(-c2csc(NC(=O)c3ccncc3)n2)c(C)c1 [Compound 110]
